Source: PubChem BioAssay (NCI)
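Step 1: Grow cells in 96-well plates. Step 2: Expose to compound for 48 hours at 5 concentrations. Step 3: Interpolate endpoints linearly; if unreached, use highest concentration. The concentration for 50% growth inhibition is given as GI50. TGI: concentration producing complete growth inhibition.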

Tests used:
Test in all cases: NCI tumour cell line growth inhibition, 48 h
[1] = test system: HL-60(TB) leukemia
[2] = test system: OVCAR-5 ovarian
[3] = test system: SK-MEL-28 melanoma
[4] = test system: NCI-H23 lung
[5] = test system: UACC-62 melanoma
[6] = test system: HOP-92 NSCLC
[7] = test system: RXF 393 renal
[8] = test system: SF-268 CNS
[9] = test system: UACC-257 melanoma
[10] = test system: RPMI-8226 leukemia

Row | SMILES | GI50 [1] [µM] | TGI [1] [µM] | GI50 [2] [µM] | TGI [2] [µM] | GI50 [3] [µM] | TGI [3] [µM] | GI50 [4] [µM] | TGI [4] [µM] | GI50 [5] [µM] | TGI [5] [µM] | GI50 [6] [µM] | TGI [6] [µM] | GI50 [7] [µM] | TGI [7] [µM] | GI50 [8] [µM] | TGI [8] [µM] | GI50 [9] [µM] | TGI [9] [µM] | GI50 [10] [µM] | TGI [10] [µM]
1 | N#Cc1c(NC(=O)c2cccs2)[n+]([O-])c2ccccc2[n+]1[O-] | > 100 | > 100 | > 100 | > 100 | > 100 | > 100 | > 100 | > 100 | > 100 | > 100 | 81.7 | > 100 | > 100 | > 100 | > 100 | > 100 | > 100 | > 100 | > 100 | > 100
2 | N#Cc1nc(-c2cccc(Br)c2)cc(-c2ccc(Nc3nc(N4CCCCC4)nc(N4CCCCC4)n3)cc2)c1N | 2.27 | 6.47 | 2.06 | 4.7 | 1.83 | 3.89 | 2.39 | 8.33 | 1.5 | 3.27 | 1.68 | 3.36 | 1.34 | 2.99 | 3.27 | 21.5 | 2.98 | 29.8 | 2.19 | 24
3 | O=C(O)CC(Cc1ccc2c(c1)OCO2)C(=O)O (centres undefined) |  | > 100 |  | > 100 |  | > 100 |  | > 100 |  | > 100 |  | > 100 |  | > 100 |  | > 100 |  | > 100 |  | > 100
4 | Nc1cc(N)c2nc(-c3ccccc3)c(Nc3ccc(F)cc3)nc2c1 | 11.3 | > 100 | 38.4 | > 100 | 20.4 | 39.3 | 22.5 | 49.1 | 16.1 | 31.7 | 13.1 | 43.6 | 8.71 | 28.8 | 13.2 | 41 | 15.3 | 29 | 4.64 | 34.6
5 | COc1ccc2[nH]c3c(cnn4cnnc34)c2c1 |  | > 100 |  | > 100 |  | > 100 |  | > 100 |  | > 100 |  | > 100 |  | > 100 |  | > 100 |  | > 100 |  | > 100
6 | CCN(CC)c1ccc(/C=N/NC(=O)c2ccc(Nc3ccnc(C(F)(F)F)c3)cc2)c(O)c1 | 0.258 | 0.791 | 0.38 | 4.75 | 0.32 | > 27.3 | 0.428 | 9.8 | 0.229 | 0.898 | 1.05 | > 100 | 0.156 | 0.44 | 0.155 | > 20.7 | 0.412 | > 31 | 0.12 | 0.555
7 | Cc1c(C(=O)/C=C/c2ccc(O)cc2)nnn1-c1ccnc2c(C(F)(F)F)cccc12 | 4.01 | 31.4 | > 100 | > 100 | 51.8 | > 100 | 15.2 | > 100 | 18.7 | > 100 | 34.5 | > 100 | 16.6 | 67.3 | 4.08 | 71.8 | 4.4 | 22.9 | 2.84 | 21.1
8 | COc1cc2c(cc1OCCCCCOc1cc(-c3ccc(F)cc3)nc(C)n1)N=C[C@@H]1CCCN1C2=O | > 100 | > 100 | > 100 | > 100 | > 46.2 | > 79.8 | > 100 | > 100 | > 38.1 | > 56.2 | 0.376 | 6.7 | > 32.9 | > 54.3 | > 32.5 | > 65.2 | > 100 | > 100 |  | > 24
9 | Cc1cccc2c3c(sc12)C(c1ccc(Cl)cc1)C(C#N)=C(/N=C/c1ccc(Cl)cc1)O3 (centres undefined) | 0.325 | 2.54 | 0.558 | > 100 | 4.73 | > 100 | 0.446 | 14.2 | 0.337 | 12.7 | 6.04 | 36.7 | 0.24 | 0.776 | 1.93 | 46.2 | > 100 | > 100 | 0.408 | > 28.3
10 | CSC(=S)N(C)c1nc(=[N+](C)C)ss1 |  | > 100 |  | > 100 |  | > 100 |  | > 100 |  | > 100 |  | > 100 |  | > 100 |  | > 100 |  | > 100 |  | > 100
11 | C/C(=N\NC(N)=S)c1ccc(/C(C)=N/NC(N)=S)cc1 |  | > 100 |  | > 100 |  | > 100 |  | > 100 |  | > 100 |  | > 100 |  | > 100 |  | > 100 |  | > 100 |  | > 100
12 | CCc1ccccc1NC(=O)CCc1nc(=S)[nH][nH]1 |  | > 100 |  | > 100 |  | > 100 |  | > 100 |  | > 100 |  | > 100 |  | > 100 |  | > 100 |  | > 100 |  | > 100
13 | FC(F)(F)c1ccc2c(c1)N(CCCN1CCN(C3CC3)CC1)c1ccccc1S2 | 6.03 | 23.3 | 13.2 | 27.6 | 15.2 | 29.1 | 7.42 | 23.1 | 14.1 | 30.1 | 13.9 | 28.1 | 11.5 | 24.1 | 12.7 | 26.8 | 5.57 | 19 | 6.18 | 25.8
14 | COC(=O)Nc1ccc2ccc3c(NC(=O)OC)ccc4ccc1c2c43 (tested in a mixture with another compound) | 9.95 | > 50 | 13.9 | > 50 | 35.2 | > 50 | 11.5 | > 50 | 5.83 | > 50 | 1.62 | 14.1 | 7.3 | 20.5 | 14 | > 50 | 21.8 | > 50 | 8.22 | > 50
15 | COc1ncnc2c(NC3OC(CO)C(O)C3O)ncnc12 (centres undefined) |  | 0.418 |  | > 35.6 |  | > 100 |  | 13.5 |  | 6.66 |  | 0.527 |  | 12.7 |  | > 100 |  | > 100 |  | 3.08
16 | CN(C)c1cccc2[nH]c(-c3[nH]ncc3Nc3ccnc(N)n3)nc12 | < 0.0141 | 0.0666 | 0.023 | 1.9 | 0.0183 | 0.452 | 0.0232 | 0.217 | 0.0136 | 0.0701 | 0.0152 | 0.0603 | < 0.01 | < 0.0168 | 0.0179 | 0.104 | 0.0318 | 0.324 | 0.281 | 0.885
17 | O=[N+]([O-])c1ccc(Cc2nc3ccccc3s2)cc1 |  | > 100 |  | > 100 |  | > 100 |  | > 100 |  | > 100 |  | > 100 |  | > 100 |  | > 100 |  | > 100 |  | > 100
18 | COc1nccc(-c2c(-c3ccc(F)cc3)ncn2C2CCC(O)CC2)n1 (centres undefined) | 56.7 | > 100 | 43.8 | > 100 | > 58.3 | > 100 | > 100 | > 100 | > 86.9 | > 100 | > 100 | > 100 | > 79.2 | > 100 | > 84.6 | > 100 | > 100 | > 100 | > 70.3 | > 100
19 | O=c1c2cc(Br)ccc2oc2ccc(Br)cc12 |  | > 100 |  | > 100 |  | > 100 |  | > 100 |  | > 100 |  | > 100 |  | > 100 |  | > 100 |  | > 100 |  | > 100
20 | C/C(=N\NC(N)=S)c1ccc2c(c1)OCO2 |  | > 100 |  | > 100 |  | > 100 |  | > 100 |  | > 100 |  | > 100 |  | > 100 |  | > 100 |  | > 100 |  | > 100
21 | COC(=O)c1c2c(c(C)[n+]([O-])c1C)C(=O)C=C(NCc1ccc(Cl)cc1)C2=O | 0.324 | 1.55 | 1.29 | 2.78 | 0.733 | 2.59 | 0.572 | 2.9 | 0.046 | 1.02 | 1.93 | 4.09 | 1.22 | 2.53 | 0.747 | 2.96 | 0.234 | 0.868 | 1.24 | 4.7
22 | O=C1C(NCCO)=C(N2CC2)C(=O)C(NCCO)=C1N1CC1 |  | 57.6 |  | > 100 |  | > 100 |  | 74.6 |  | 99.5 |  | > 100 |  | > 100 |  | 76.8 |  | > 100 |  | > 84.8
23 | C/C(=N\NC(=S)N(C)C)c1ncc[nH]1 |  | 5.87 |  | 6.19 |  | > 100 |  | 5.07 |  | 7.67 |  | 7.85 |  | > 100 |  | > 100 |  | 7.52 |  | > 100
24 | O=C(Oc1ccccc1)c1cc(O)c(O)c(O)c1 | 1.43 | 7.12 | 25.2 | > 100 | 19.2 | > 100 | 11.7 | 59.2 | 8.45 | 56.4 | 8.75 | 81.4 | 25.6 | > 100 | 8.15 | > 100 | 35.8 | > 100 | 11.4 | > 100
